The record followed here is patent US9980943B2, “Methods of treating muscular dystrophy” (BOARD OF REGENTS OF THE NEVADA SYSTEM OF HIGHER EDUCATION, …, priority 2013, dated 2018).

Common to all, as to format: cell-based, mouse
Assay [1] deals with α7 integrin (LacZ reporter in α7+/LacZ myotubes). In words: Myotube α7 integrin FDG assay (Burkin assay in myotubes, 96-well). The note with it: myotubes.
The subject of assay [2] is α7 integrin (LacZ reporter in α7βgal+/− myoblasts). In words: Myoblast α7+/LacZ integrin FDG assay (Burkin assay in myoblasts, 96-well). The note with it: α7+/LacZ myoblasts, 96-well.
Assay [3] relates to β-galactosidase in CMV-LacZ C2C12 myoblasts. In words: CMV-LacZ secondary screen in C2C12 myoblasts (β-Gal stabilizing assay). The note with it: CMV-LacZ C2C12 myoblasts. In outline: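 C2C12 myoblasts stably carrying a linearized CMV-driven LacZ construct, clone chosen by β-gal level in the myoblast FDG assay. Compounds tested in 96-well dose-response at 0.5, 1, 5, 10, 20 and 40 μM, N=2 replicates per point, to detect β-gal stabilization.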

Assay [4] relates to β-galactosidase in CMV-LacZ C2C12 myotubes. Kind of assay: CMV-LacZ secondary screen in C2C12 myotubes (β-Gal stabilizing assay). The note with it: C2C12 CMV-LacZ myotubes, fold relative to DMSO. In a few lines: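 Dose-response runs at 0.5–40 μM (0.5, 1, 5, 10, 20, 40 μM; N=2 per point) used a clonal C2C12 line carrying CMV-LacZ. Cells were assayed as myoblasts or as differentiated myotubes, and β-galactosidase levels were read with the FDG fluorogenic substrate.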

As for `O=C(N/N=C/c1c[nH]c2ccccc12)c1cc(Cl)ccc1O` [MLS001196572-01], the “Burkin Assay in Myotubes, α7 integrin LacZ reporter signal relative to DMSO” value in assay [1] (0.5 uM) came out at 0.9236; in assay [1] (1 uM), 0.8882; in assay [1] (5 uM), 1.148; in assay [1] (10 uM) it was 0.9294; in assay [1] (20 uM) it was 0.9805; in assay [1] (40 uM), 0.7181. Also, the “Burkin Assay in Myoblasts, signal relative to DMSO” value in assay [2] (0.5 uM) stood at 0.8826; in assay [2] (1 uM), 0.7626; in assay [2] (5 uM), 1.224; in assay [2] (10 uM), 0.9483; in assay [2] (20 uM), 0.9362; in assay [2] (40 uM), 0.9345. In addition, the “CMV-LACZ in Myoblasts (β-galactosidase activity relative to DMSO)” value in assay [3] (0.5 uM) was 1.0105; in assay [3] (1 uM), 1.3172; in assay [3] (5 uM), 1.0605; in assay [3] (10 uM) it was 0.9456; in assay [3] (20 uM) it was 1.0767; in assay [3] (40 uM), 1.0778. Further, the “CMV-LACZ in Myotubes, signal relative to DMSO” value in assay [4] (0.5 uM) was found to be 0.9632; in assay [4] (1 uM) it was 0.9379; in assay [4] (5 uM), 0.9853; in assay [4] (10 uM) it was 1.0223; in assay [4] (20 uM), 1.1456; in assay [4] (40 uM), 1.1422.

With `Cc1cc(C)cc(OCC(=O)N/N=C/c2ccccn2)c1` [MLS000710669-01], the “Burkin Assay in Myotubes, α7 integrin LacZ reporter signal relative to DMSO” value is given as 1.045 in assay [1] (0.5 uM); 1.163 in assay [1] (1 uM); 1.054 in assay [1] (5 uM); 0.9 in assay [1] (10 uM); 0.9967 in assay [1] (20 uM); 1.0073 in assay [1] (40 uM). Further, the “Burkin Assay in Myoblasts, signal relative to DMSO” value in assay [2] (0.5 uM) is recorded as 1.025; in assay [2] (1 uM) it was 1.05; in assay [2] (5 uM) it was 1.0722; in assay [2] (10 uM), 0.9941; in assay [2] (20 uM) it was 1.848; in assay [2] (40 uM) it was 0.8243. The “CMV-LACZ in Myoblasts (β-galactosidase activity relative to DMSO)” value was determined as 1.0969 in assay [3] (0.5 uM); 0.9975 in assay [3] (1 uM); 1.0325 in assay [3] (5 uM); 1.0823 in assay [3] (10 uM); 1.1319 in assay [3] (20 uM); 0.8778 in assay [3] (40 uM). The “CMV-LACZ in Myotubes, signal relative to DMSO” value came to 0.9341 in assay [4] (0.5 uM); 0.8881 in assay [4] (1 uM); 0.9690 in assay [4] (5 uM); 1.2372 in assay [4] (10 uM); 0.8682 in assay [4] (20 uM); 1.1824 in assay [4] (40 uM).

As to `c1ccc(-c2cc(-c3nc4ccccc4[nH]3)c3ccccc3n2)cc1` [MLS000554416-01], the “Burkin Assay in Myotubes, α7 integrin LacZ reporter signal relative to DMSO” value is 0.9146 in assay [1] (0.5 uM); 0.9261 in assay [1] (1 uM); 0.8366 in assay [1] (5 uM); 0.9334 in assay [1] (10 uM); 0.6816 in assay [1] (20 uM); 0.4915 in assay [1] (40 uM). Moreover, the “Burkin Assay in Myoblasts, signal relative to DMSO” value in assay [2] (0.5 uM) was determined as 1.211; in assay [2] (1 uM), 1.0679; in assay [2] (5 uM), 0.9915; in assay [2] (10 uM), 0.9591; in assay [2] (20 uM) it was 1.087; in assay [2] (40 uM), 0.8248. The “CMV-LACZ in Myoblasts (β-galactosidase activity relative to DMSO)” value in assay [3] (0.5 uM) was found to be 1.1310; in assay [3] (1 uM), 1.3983; in assay [3] (5 uM), 0.8594; in assay [3] (10 uM), 1.1123; in assay [3] (20 uM), 1.1077; in assay [3] (40 uM), 0.8611. Moreover, the “CMV-LACZ in Myotubes, signal relative to DMSO” value in assay [4] (0.5 uM) is given as 1.0019; in assay [4] (1 uM), 0.9629; in assay [4] (5 uM), 0.8969; in assay [4] (10 uM) it was 0.9798; in assay [4] (20 uM) it was 0.8760; in assay [4] (40 uM), 0.7060.

Turning to `CCCC(=O)OCC(=O)c1[nH]c(C)c(C(C)=O)c1C` [MLS001007892-01], the “Burkin Assay in Myotubes, α7 integrin LacZ reporter signal relative to DMSO” value in assay [1] (0.5 uM) is on record as 0.9046; in assay [1] (1 uM), 1.013; in assay [1] (5 uM) it was 0.9742; in assay [1] (10 uM), 1.075; in assay [1] (20 uM) it was 0.8343; in assay [1] (40 uM), 0.9888. The “Burkin Assay in Myoblasts, signal relative to DMSO” value in assay [2] (0.5 uM) amounted to 1.127; in assay [2] (1 uM), 1.037; in assay [2] (5 uM), 1.016; in assay [2] (10 uM), 1.23; in assay [2] (20 uM) it was 0.7225; in assay [2] (40 uM) it was 0.4983. Moreover, the “CMV-LACZ in Myoblasts (β-galactosidase activity relative to DMSO)” value came out at 0.9338 in assay [3] (0.5 uM); 0.8108 in assay [3] (1 uM); 1.0511 in assay [3] (5 uM); 1.1495 in assay [3] (10 uM); 0.6390 in assay [3] (20 uM); 0.4953 in assay [3] (40 uM). In addition, the “CMV-LACZ in Myotubes, signal relative to DMSO” value came to 1.1673 in assay [4] (0.5 uM); 0.9291 in assay [4] (1 uM); 1.0066 in assay [4] (5 uM); 0.9543 in assay [4] (10 uM); 1.2170 in assay [4] (20 uM); 1.0540 in assay [4] (40 uM).
